# Assay results taken from ChEMBL document CHEMBL1154010, “Aziridine alkaloids as potential therapeutic agents” (Eur J Med Chem, 2009).
# Key:
# Mus musculus = assay: Toxicity in ip dosed ddY mouse bearing mouse S180 cells; format: organism-based, CCRF S-180; conditions: in vivo
# CCRF S-180 [1] = assay: Antitumor activity against mouse S180 cells implanted in ip dosed ddY mouse assessed as tumor volume after 7 days; format: functional
# CCRF S-180 [2] = assay: Antitumor activity against mouse S180 cells xenografted in rat; format: functional
# [3] = Antitumor activity against mouse mammary cancer cell implanted in C3H/An mouse assessed as inhibition of tumor growth at 0.5 mg/day for 14 days; format: functional, Cancer cell lines
# HCT-116 = assay: Cytotoxicity against human HCT116 cells; format: functional, cell-based
# [4] = test system: Mycolicibacterium smegmatis; assay: Antimicrobial activity against streptothricin-resistant Mycobacterium smegmatis ATCC 607; format: functional
# [5] = test system: Mycolicibacterium smegmatis; assay: Antimicrobial activity against streptomycin-resistant Mycobacterium smegmatis ATCC 607; format: functional
# Bacillus anthracis = assay: Antimicrobial activity against Bacillus anthracis; format: functional
# Bacillus cereus = assay: Antimicrobial activity against Bacillus cereus ATCC 10702; format: functional
# Bacillus subtilis [6] = assay: Antimicrobial activity against Bacillus subtilis NRRL B-558; format: functional
# Bacillus subtilis [7] = assay: Antimicrobial activity against Bacillus subtilis PCI 219; format: functional
# Corynebacterium bovis = assay: Antimicrobial activity against Corynebacterium bovis 1810; format: functional
# Escherichia coli [8] = assay: Antimicrobial activity against Escherichia coli K-12; format: functional
# Escherichia coli [9] = assay: Antimicrobial activity against Escherichia coli K-12 MLI629; format: functional
# Escherichia coli [10] = assay: Antimicrobial activity against Escherichia coli BEM11; format: functional
# Escherichia coli [11] = assay: Antimicrobial activity against Escherichia coli BE1126; format: functional
# Escherichia coli [12] = assay: Antimicrobial activity against Escherichia coli BE1186; format: functional
# Klebsiella pneumoniae = assay: Antimicrobial activity against Klebsiella pneumoniae PCI602; format: functional
# Proteus vulgaris = assay: Antimicrobial activity against Proteus vulgaris OX19; format: functional
# Proteus mirabilis = assay: Antimicrobial activity against Proteus mirabilis IFM OM-9; format: functional
# Providencia rettgeri [13] = assay: Antimicrobial activity against Providencia rettgeri GN311; format: functional
# Providencia rettgeri [14] = assay: Antimicrobial activity against Providencia rettgeri GN466; format: functional
# Pseudomonas aeruginosa [15] = assay: Antimicrobial activity against Pseudomonas aeruginosa A3; format: functional
# Pseudomonas aeruginosa [16] = assay: Antimicrobial activity against Pseudomonas aeruginosa GN315; format: functional
# Staphylococcus aureus [17] = assay: Antimicrobial activity against Staphylococcus aureus FDA209P; format: functional
# Staphylococcus aureus [18] = assay: Antimicrobial activity against Staphylococcus aureus Smith; format: functional
# Staphylococcus aureus [19] = assay: Antimicrobial activity against methicillin-resistant Staphylococcus aureus isolate 5; format: functional
# Staphylococcus aureus [20] = assay: Antimicrobial activity against methicillin-resistant Staphylococcus aureus isolate 17; format: functional
# Micrococcus luteus [21] = assay: Antimicrobial activity against Micrococcus luteus IFO 3333; format: functional
# Micrococcus luteus [22] = assay: Antimicrobial activity against Micrococcus luteus PCI 1001; format: functional
# [23] = test system: Salmonella enterica subsp. enterica; assay: Antimicrobial activity against Salmonella typhi T-63; format: functional, Salmonella enterica subsp. enterica serovar Typhi
# [24] = test system: Salmonella enterica subsp. enterica; assay: Antimicrobial activity against Salmonella enteritidis 1891; format: functional, Salmonella enterica subsp. enterica serovar Enteritidis
# Shigella dysenteriae = assay: Antimicrobial activity against Shigella dysenteriae JS1 1910; format: functional
# Shigella flexneri = assay: Antimicrobial activity against Shigella flexneri 4bJS11811; format: functional
# [25] = test system: Salmonella enterica subsp. enterica; assay: Antimicrobial activity against Salmonella typhi JS11746; format: functional, Salmonella enterica subsp. enterica serovar Typhi
# Staphylococcus aureus [26] = assay: Antimicrobial activity against Staphylococcus aureus MS9610; format: functional
# Micrococcus luteus [27] = assay: Antimicrobial activity against Micrococcus luteus FDA16; format: functional
# Escherichia coli [28] = assay: Antimicrobial activity against Escherichia coli NIHJ; format: functional
# [29] = test system: Mycolicibacterium smegmatis; assay: Antimicrobial activity against Mycobacterium smegmatis ATCC 607; format: functional
# Mycolicibacterium vaccae = assay: Antimicrobial activity against Mycobacterium vaccae ATCC 15483; format: functional
# [30] = test system: Mycolicibacterium smegmatis; assay: Antimicrobial activity against rifamycin-resistant Mycobacterium smegmatis ATCC 607; format: functional
# [31] = test system: Mycolicibacterium smegmatis; assay: Antimicrobial activity against paromomycin-resistant Mycobacterium smegmatis ATCC 607; format: functional
# [32] = test system: Mycolicibacterium smegmatis; assay: Antimicrobial activity against capreomycin-resistant Mycobacterium smegmatis ATCC 607; format: functional
# [33] = Toxicity in rat bearing M1 cells assessed as mortality at 40% LD50 per day; format: organism-based; conditions: m1, 40 % LD50 per day, read-out: Activity
# [34] = Antitumor activity against mouse EAC cells xenografted in rat; format: functional, Ehrlich
# L5178Y = assay: Cytotoxicity against mouse L5178Y cells; format: functional, cell-based
# [35] = Inhibition of sunflower S-adenosyl-L-methionine-C-24 methyltransferase; design: species or system Helianthus annuus
# [36] = target: Fumarate hydratase, mitochondrial (Sus scrofa, UniProt P10173); assay: Inhibition of pig heart fumarase
# Aspartase = Aspartase (Escherichia coli, UniProt Q59388); assay: Inhibition of Escherichia coli aspartase
# Sequence of Aspartase (Q59388 whole entry): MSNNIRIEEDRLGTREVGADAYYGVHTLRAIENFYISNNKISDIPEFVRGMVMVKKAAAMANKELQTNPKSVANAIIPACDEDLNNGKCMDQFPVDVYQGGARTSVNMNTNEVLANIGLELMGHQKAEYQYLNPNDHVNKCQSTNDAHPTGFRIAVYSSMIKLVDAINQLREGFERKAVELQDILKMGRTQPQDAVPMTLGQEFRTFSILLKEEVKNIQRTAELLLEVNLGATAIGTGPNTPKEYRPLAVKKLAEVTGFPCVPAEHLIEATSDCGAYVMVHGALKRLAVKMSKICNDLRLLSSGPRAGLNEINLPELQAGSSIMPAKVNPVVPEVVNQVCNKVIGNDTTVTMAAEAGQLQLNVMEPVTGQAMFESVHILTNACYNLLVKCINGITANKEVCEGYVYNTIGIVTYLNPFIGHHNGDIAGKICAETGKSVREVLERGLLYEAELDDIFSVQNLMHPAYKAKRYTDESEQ
# Sequence of Fumarate hydratase, mitochondrial (P10173 whole entry): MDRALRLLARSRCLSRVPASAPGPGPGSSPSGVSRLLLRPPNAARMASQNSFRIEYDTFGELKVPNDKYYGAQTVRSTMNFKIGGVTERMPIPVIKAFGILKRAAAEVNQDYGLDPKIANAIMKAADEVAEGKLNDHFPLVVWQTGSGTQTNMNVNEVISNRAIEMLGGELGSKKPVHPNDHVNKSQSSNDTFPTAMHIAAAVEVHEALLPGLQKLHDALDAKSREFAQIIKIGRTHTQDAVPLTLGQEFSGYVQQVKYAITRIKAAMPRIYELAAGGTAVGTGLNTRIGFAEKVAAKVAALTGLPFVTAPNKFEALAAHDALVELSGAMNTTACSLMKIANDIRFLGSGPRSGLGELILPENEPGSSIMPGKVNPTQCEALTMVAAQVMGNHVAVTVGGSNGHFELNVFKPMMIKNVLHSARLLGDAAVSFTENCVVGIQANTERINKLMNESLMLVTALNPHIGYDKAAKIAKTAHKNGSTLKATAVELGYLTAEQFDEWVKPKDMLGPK
structure (smiles),measurement,setting,value
COC1=C(C)C(=O)C2=C(C1=O)[C@H](COC(N)=O)[C@@]1(OC)[C@@H]3[C@H](CN21)N3C (stereo partly specified) [MITOMYCIN J],LD50,Mus musculus,9 µg/mL
same,ED50,CCRF S-180 [1],10 µg/mL
CC1(C)CC(C(=O)ONP(=O)(N2CC2(C)C)N2CC2(C)C)CC(C)(C)N1O (stereo unspecified),Activity,CCRF S-180 [2],93%
COc1ccc2c(c1)CC[C@@H]1[C@@H]2CC[C@]2(C)C(=O)C(N3CC3)C[C@@H]12 (stereo partly specified),inhibition (INH),[3],17%
C=C1C2=C(C(=O)C(C)=C(OC)C2=O)N2C[C@H]3[C@H](N3C)[C@]12O (stereo partly specified) [MITOMYCIN H],LD50,Mus musculus,12 µg/mL
same,ED50,CCRF S-180 [1],6.8 µg/mL
COC(=O)[C@H]1N=C1/C=C/CCCCCCCCCC=C(Br)Br,IC50,HCT-116,19.6 µM
CC(=O)[C@H]1C(N2CC2)C[C@H]2[C@@H]3CCC4=CC(=O)CC[C@]4(C)[C@H]3CC[C@]12C (stereo partly specified),inhibition (INH),[3],55%
COC(=O)[C@H]1N=C1/C=C/CCCCCCCCCC=C(Cl)Cl,IC50,HCT-116,24.8 µM
COc1c(O)cc2c(OC)c3c(c(O)c2c1O)C(=O)CC1CC(O)(C2CN2)CC(=O)C31O (stereo unspecified) [AZICEMICIN B],MIC,[4],25 µg/mL
same,MIC,[5],6.25 µg/mL
same,MIC,Bacillus anthracis,100 µg/mL
same,MIC,Bacillus cereus,100 µg/mL
same,MIC,Bacillus subtilis [6],100 µg/mL
same,MIC,Bacillus subtilis [7],100 µg/mL
same,MIC,Corynebacterium bovis,6.25 µg/mL
same,MIC,Escherichia coli [8],100 µg/mL
same,MIC,Escherichia coli [9],100 µg/mL
same,MIC,Escherichia coli [10],100 µg/mL
same,MIC,Escherichia coli [11],100 µg/mL
same,MIC,Escherichia coli [12],100 µg/mL
same,MIC,Klebsiella pneumoniae,100 µg/mL
same,MIC,Proteus vulgaris,100 µg/mL
same,MIC,Proteus mirabilis,100 µg/mL
same,MIC,Providencia rettgeri [13],100 µg/mL
same,MIC,Providencia rettgeri [14],100 µg/mL
same,MIC,Pseudomonas aeruginosa [15],> 50 µg/mL
same,MIC,Pseudomonas aeruginosa [16],100 µg/mL
same,MIC,Staphylococcus aureus [17],100 µg/mL
same,MIC,Staphylococcus aureus [18],100 µg/mL
same,MIC,Staphylococcus aureus [19],100 µg/mL
same,MIC,Staphylococcus aureus [20],100 µg/mL
same,MIC,Micrococcus luteus [21],1.56 µg/mL
same,MIC,Micrococcus luteus [22],1.56 µg/mL
same,MIC,[23],100 µg/mL
same,MIC,[24],> 50 µg/mL
same,MIC,Shigella dysenteriae,25 µg/mL
same,MIC,Shigella flexneri,100 µg/mL
same,MIC,[25],100 µg/mL
same,MIC,Staphylococcus aureus [26],100 µg/mL
same,MIC,Micrococcus luteus [27],6.25 µg/mL
same,MIC,Escherichia coli [28],25 µg/mL
same,MIC,[29],12.5 µg/mL
same,MIC,Mycolicibacterium vaccae,6.25 µg/mL
same,MIC,[30],25 µg/mL
same,MIC,[31],6.25 µg/mL
same,MIC,[32],12.5 µg/mL
CCCCCCCCCCCCC/C=C/C1=N[C@@H]1C(=O)OC,IC50,HCT-116,18.2 µM
CC(=O)O[C@H]1C(=O)[C@@]2(C)C([C@H](OC(=O)c3ccccc3)[C@]3(O)C[C@H](OC(=O)[C@@H](O)[C@H](NC(=O)c4ccccc4)c4ccccc4)C(C)=C1C3(C)C)[C@]1(OC(=O)N3CC3)CO[C@@H]1C[C@@H]2O (stereo partly specified),IC50,HCT-116,0.0156 µM
CO[C@@]12[C@H](COC(N)=O)C3=C(C(=O)C(C)=C(N)C3=O)N1C[C@@H]1N[C@@H]12 [MITOMYCIN],ED50,CCRF S-180 [1],4.4 µg/mL
CC(=O)O[C@H]1CC[C@@]2(C)C(=CC[C@@H]3[C@@H]2CC[C@]2(C)C(=O)C(CN4CC4)C[C@@H]32)C1 (stereo partly specified),inhibition (INH),[3],32%
CC1SCCN1P(=O)(N1CC1)N1CC1 (stereo unspecified) [MARCOPHAN],mortality,[33],25%
C=C1C2=C(C(=O)C(C)=C(N)C2=O)N2C[C@H]3[C@H](N3C)[C@]12OC (stereo partly specified) [MITOMYCIN K],LD50,Mus musculus,22 µg/mL
same,ED50,CCRF S-180 [1],35 µg/mL
CC1(C)CC(CCC(=O)ONP(=O)(N2CC2)N2CC2)CC(C)(C)N1O,Activity,CCRF S-180 [2],93%
same,Activity,[34],90%
Nc1nc(=O)c2c(CNC(=O)N3CC3)c[nH]c2[nH]1,IC50,L5178Y,9 µg/mL
C[C@H](CCC1NC1(C)C)[C@H]1CC[C@@]2(C)C3=C(CC[C@]12C)[C@@]1(C)CC[C@H](O)C(C)(C)[C@@H]1CC3 (mixture of isomers),Ki,[35],0.003 µM
CC(=O)O[C@H]1C(=O)[C@@]2(C)C([C@H](OC(=O)c3ccccc3)[C@]3(O)C[C@H](OC(=O)[C@@H](O)[C@H](CC(=O)OC(C)(C)C)c4ccco4)C(C)=C1C3(C)C)[C@]1(OC(=O)N3CC3)CO[C@@H]1C[C@@H]2O (stereo partly specified),IC50,HCT-116,0.002 µM
O=C(O)[C@H]1N[C@@H]1C(=O)O,Ki,[36],0.08 µM
same,Ki,Aspartase,55 µM
